Experimental data reported in patent publication US20070116822A1, “HIGH-POTENCY SWEETENER COMPOSITION WITH SAPONIN AND COMPOSITIONS SWEETENED THEREWITH” (THE COCA-COLA COMPANY, priority 2005, published 2007).

Columns and labels:
[1] = Sensory evaluation of sweetness linger by a panel of experts; type: in vivo; design: key: 0=no sweetness linger; 1=very slight sweetness linger; 2=slight sweetness linger; 3=moderate sweetness linger; 4=moderately high sweetness linger; 5=high sweetness linger; conditions: for Sweetness linger rating: scale 0-5; for Sweetness Linger rating (defined scale anchors): rating defined for the protocol, REBA control sample 500 ppm
Protocol: As used herein, the phrases “sugar-like characteristic,” “sugar-like taste,” “sugar-like sweet,” “sugary,” and “sugar-like” are synonymous. […] These characteristics are dimensions in which the taste of sucrose is different from the tastes of natural and synthetic high-potency sweeteners. Whether or not a characteristic is more sugar-like is determined by expert sensory panel assessments of sugar and compositions comprising at least one natural and/or synthetic high-potency sweetener, both with and without a sweet taste improving composition. Such assessments quantify similarities of the characteristics of compositions comprising at least one natural and/or synthetic high-potency sweetener, both with and without a sweet taste improving composition, with those comprising sugar. Suitable procedures for determining whether a composition has a more sugar-like taste are well known in the art.
In a particular embodiment, a panel of assessors is used to measure the reduction of sweetness linger. Briefly described, a panel of assessors (generally 8 to 12 individuals) is trained to evaluate sweetness perception and measure sweetness at several time points from when the sample is initially taken into the mouth until 3 minutes after it has been expectorated. […] A decrease in score for a time point measured after the sample has cleared the mouth indicates there has been a reduction in sweetness perception.
The panel of assessors may be trained using procedures well known to those of ordinary skill in the art. In a particular embodiment, the panel of assessors may be trained using the Spectrum™ Descriptive Analysis Method (Meilgaard et al, Sensory Evaluation Techniques, 3rd edition, Chapter 11). Desirably, the focus of training should be the recognition of and the measure of the basic tastes; specifically, sweet. In order to ensure accuracy and reproducibility of results, each assessor should repeat the measure of the reduction of sweetness linger about three to about five times per sample, taking at least a five minute break between each repetition and/or sample and rinsing well with water to clear the mouth.
Generally, the method of measuring sweetness comprises taking a 10 mL sample into the mouth, holding the sample in the mouth for 5 seconds and gently swirling the sample in the mouth, rating the sweetness intensity perceived at 5 seconds, expectorating the sample (without swallowing following expectorating the sample), rinsing with one mouthful of water (e.g., vigorously moving water in mouth as if with mouth wash) and expectorating the rinse water, rating the sweetness intensity perceived immediately upon expectorating the rinse water, waiting 45 seconds and, while wating those 45 seconds, identifying the time of maximum perceived sweetness intensity and rating the sweetness intensity at that time (moving the mouth normally and swallowing as needed), rating the sweetness intensity after another […], rating the sweetness intensity after another 60 seconds (cumulative 120 seconds after rinse), and rating the sweetness intensity after still another 60 seconds (cumulative 180 seconds after rinse). Between samples take a 5 minute break, rinsing well with water to clear the mouth.
Sensory evaluation of the samples prepared in Example Set G was carried out under the following protocol, similar to that described hereinabove. In this test protocol, none of the samples were swallowed. All samples were expectorated and the mouth was rinsed with water after the tasting. Immediately upon sensing maximal sweetness, the sample was expectorated, the mouth was rinsed with water and the rate of sweetness decay (“Sweetness Linger”) was measured, where attention was focused on the sweetness 3-4 min after the water rinse. After sample tasting was complete, a salty oyster cracker was chewed followed by a water rinse, and at least 5 minutes followed before tasting the next sample. […]

[2] = type: physicochemical
Protocol: A solution of rebaudioside A (>97% pure by HPLC ) was prepared in double distilled water (12.5 gm in 50 mL, 25% concentration) by stirring the mixture at 40° C. for 5 minutes. An amorphous form of rebaudioside A was formed by immediately using the clear solution for spray drying with the Lab-Plant spray drier SD-04 instrument (Lab-Plant Ltd., West Yorkshire, U.K.). The solution was fed through the feed pump into the nozzle atomizer which atomized it into a spray of droplets with the help of a constant flow of nitrogen/air. […] This dry powder (11-12 g, H2O 6.74%) was discharged continuously from the drying chamber and was collected in a bottle.

[3] = Example Set G, citric acid/potassium citrate composition equivalent to diet lemon-lime beverage, sweetness 3-4 min after water rinse
[4] = Example Set H, carbon-treated water, phosphoric acid (75%) to pH 2.4-2.5, protocol of Example Set G

Solubility in water at room temperature [2] [%] | Molecule | Sweetness linger rating [1, 3] | Sweetness linger rating [1, 4] | Sweetness Linger rating (defined scale anchors) [1]
 | OC[C@H]1O[C@@](CO)(O[C@H]2O[C@H](CO)[C@@H](O)[C@H](O)[C@H]2O)[C@@H](O)[C@@H]1O [sugar, sucrose] | 0 | 0 | 0
 | rebaudioside A | 5 | 5 | 5
> 35.0 | rebaudioside A [Form 4] |  |  | 
